Our source for the Tm/Tg values is patent publication US20110027372A1, “MULTIPARTICULATES COMPRISING LOW-SOLUBILITY DRUGS AND CARRIERS THAT RESULT IN RAPID DRUG RELEASE” (priority 2005, published 2011).

A short description of this data set: Ratio of melting temperature to glass-transition temperature (Tm/Tg) of sugar alcohols. Type of data set: physicochemical. An excerpt:
The inventors addressed this problem by using a sugar alcohol that rapidly crystallizes, resulting in improved recovery and efficiency during the multiparticulate-formation process. Without wishing to be bound by any particular theory, it is believed that the tendency for a sugar alcohol to crystallize from an aqueous solution is characterized by the ratio of the Tm of the sugar alcohol (in K) to the glass-transition temperature for the alcohol, Tg (in K) of the sugar alcohol. The driving force for crystallization is controlled primarily by Tm, while the kinetic barrier to crystallization is controlled primarily by the Tg. The ratio, Tm/Tg (in K/K), indicates the relative propensity for a sugar alcohol to crystallize. The inventors have discovered that sugar alcohols for which the ratio of Tm in K to Tg in K is at least about 1.5 can be effectively used to make multiparticulates with the desired properties. Preferably, this Tm/Tg ratio (K/K) is at least about 1.6, and more preferably at least about 1.65. Examples of suitable sugar alcohols include mannitol (Tm=438 K; Tg=234 K; Tm/Tg=1.87) and erythritol (Tm=394 K; Tg=231 K; Tm/Tg=1.71). Mixtures of such sugar alcohols may also be used.

On to `OC[C@@H](O)[C@@H](O)CO` [Erythritol], for which the Tm/Tg worked out at 1.71 K/K.

With `OC[C@@H](O)[C@@H](O[C@H]1O[C@H](CO)[C@@H](O)[C@H](O)[C@H]1O)[C@H](O)[C@@H](O)CO` [Maltitol], the Tm/Tg amounted to 1.32 K/K.

Regarding `OC[C@@H](O)[C@@H](O)[C@H](O)[C@H](O)CO` [Mannitol], the Tm/Tg is 1.87 K/K.

`OC[C@@H](O)[C@@H](O)[C@H](O)[C@@H](O)CO` [Sorbitol]: the Tm/Tg is on record as 1.38 K/K.

As for `OC[C@@H](O)[C@H](O)[C@@H](O)CO` [Xylitol], the Tm/Tg worked out at 1.46 K/K.
